Results on 8 compounds are retold here after patent US20210037830A1, “PHYTOTOXIC MICRONUTRIENT COMBINATIONS FOR SELECTIVE CONTROL OF INVASIVE PLANT SPECIES” (Edaphix, LLC, priority 2019, published 2021).

Series [1] concerns seed geranium (Pelargonium×hortorum). To be noted: in combination with nitrogen, phosphorus, and potassium; cited from earlier work.
In series [2] the test system is humans. To be noted: cited from earlier work.
Series [3] concerns French marigold. The following applies: in vivo; cited from earlier work.
For series [4], the system named is chlorophyllitic plants. The series is described as follows: Photosynthetic disruption by glyphosate. The class given is in vivo. As to the method: Extensive research has documented that plants are often sensitive to relatively minute concentrations or exposures to unique synthetic compounds or combinations of naturally occurring elements, including micronutrients. For example, glyphosate (aka ROUNDUP®, a synthetic Monsanto/Bayer product) is effective at causing photosynthetic disruption in chlorophyllitic plants at an application rate of as little as 0.75 pounds active ingredient per acre, which equates to only approximately 8 mg/square foot of application, equivalent to approximately 14 ppm application rate. The American Phytopathological Society (APS) reported that micronutrients are generally toxic when present in high amounts, although ‘high concentrations’ are not clearly defined, and little toxicity have been reported at exceptionally low micronutrient concentrations. This occurrence is known as micronutrient toxicity syndrome (MTS). […] In addition, plants can vary considerably from species to species in their susceptibility to nutrient toxicities. For example, Lee and others (1996) reported inducing seed geranium (Pelargonium×hortorum) micronutrient toxicity symptoms by applying nutrient solutions containing 0.5 mg/L B, Cu, or Zn, or as little as 0.25 mg/L Mo, in combination with nitrogen, phosphorus, and potassium. […]

The subject of series [5] is chlorophyllitic plants. The following applies: in vivo; cited from earlier work.
For series [6], the system named is humans. To be noted: 2005 carcinogen assessment guidelines; cited from earlier work.

Like-named read-outs stand apart in the source and are kept apart here.

On to `[Zn]` [Zn, zinc], for which the “nutrient solution concentration inducing micronutrient toxicity symptoms” value in series [1] is listed as 0.5 mg/L.

On to `OB(O)O` [boric acid], for which the endocrine disruptor classification result in series [2] is given as “neither classified as endocrine disruptors”.

Turning to `[B]` [boron], the “concentration inducing micro-nutrient toxicity” value in series [3] was 500 ng/mL. The endocrine disruptor classification entry in series [2] was “neither classified as endocrine disruptors”.

With `[Cu]` [copper], the “concentration inducing micro-nutrient toxicity” value in series [3] was 4000 ng/mL.

Regarding `O=C(O)CNCP(=O)(O)O` [glyphosate], the results for the “application rate effective at causing photosynthetic disruption” value in series [4] (equates to the rate per acre), in series [4] (equivalent application rate) and in series [5] were “approximately 8 mg/square foot”, “approximately 14 ppm” and 0.75 pounds active ingredient per acre, respectively.

Turning to `[Mn+2]` [manganese], in series [3], the “concentration inducing micro-nutrient toxicity” value is 1000 ng/mL.

On to `[Mo]` [molybdenum], for which the “concentration inducing micro-nutrient toxicity” value in series [3] is 5000 ng/mL.

Take borate salts: in series [2], the endocrine disruptor classification result is on record as “neither classified as endocrine disruptors”. In addition, the “U.S. EPA carcinogenicity classification” value in series [6] is reported as “not likely to be carcinogenic to humans”.
